Results: ChEMBL document CHEMBL1131393, “C32-O-imidazol-2-yl-methyl ether derivatives of the immunosuppressant ascomycin with improved therapeutic potential” (Bioorg Med Chem Lett, 1998)
Each block holds one compound with its values, some of them ahead of it.

How the values were obtained:
[1] = target: Peptidyl-prolyl cis-trans isomerase FKBP1A (Homo sapiens, UniProt P62942); test: Binding affinity for FK506 binding protein 12 using [3H]-dihydro FK-506 radioligand was determined
Mus musculus [2] = test: Immunosuppressive activity was determined by ex vivo murine-based model of immunosuppression, compound was administered intravenously in mouse.; type: functional; conditions: iv
Rattus norvegicus [3] = test: Nephrotoxic potential was tested in spontaneously hypertensive rats by administering 0 mg/kg/day intraperitoneally for 5 days; type: functional; conditions: route intraperitoneal
[4] = Therapeutic index was determined as mouse hypothermia ED50/murine ex vivo ED50; conditions: read-out: Therapeutic index
Mus musculus [5] = test: Immunosuppressive activity was determined by ex vivo murine-based model of immunosuppression, compound was administered perorally in mouse.; type: functional; conditions: po
Rattus norvegicus [6] = test: Nephrotoxic potential was tested in spontaneously hypertensive rats by administering 40 mg/kg/day intraperitoneally for 5 days; type: functional; conditions: route intraperitoneal
Mus musculus [7] = test: Neurotoxic activity was determined by measuring compound-induced hypothermia in BALB/c mice, after administering intravenously in mouse.; type: functional; conditions: iv
Rattus norvegicus [8] = test: Nephrotoxic potential was tested in spontaneously hypertensive rats by administering 10 mg/kg/day intraperitoneally for 5 days; type: functional; conditions: route intraperitoneal
Rattus norvegicus [9] = test: Nephrotoxic potential was tested in spontaneously hypertensive rats by administering 20 mg/kg/day intraperitoneally for 5 days; type: functional; conditions: route intraperitoneal

Peptidyl-prolyl cis-trans isomerase FKBP1A, sequence (P62942 whole entry): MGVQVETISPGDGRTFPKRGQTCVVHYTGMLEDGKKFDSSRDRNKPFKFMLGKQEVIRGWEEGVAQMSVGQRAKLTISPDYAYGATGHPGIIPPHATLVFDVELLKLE

Compound: CC[C@@H]1/C=C(\C)C[C@H](C)C[C@H](OC)[C@H]2O[C@@](O)(C(=O)C(=O)N3CCCC[C@H]3C(=O)O[C@H](/C(C)=C/[C@@H]3CC[C@@H](OCc4nccn4Cc4ccccc4)[C@H](OC)C3)[C@H](C)[C@@H](O)CC1=O)[C@H](C)C[C@@H]2OC
EC50 [1]: 7.4 nM

Compound: CC[C@@H]1/C=C(\C)C[C@H](C)C[C@H](OC)[C@H]2O[C@@](O)(C(=O)C(=O)N3CCCC[C@H]3C(=O)O[C@H](/C(C)=C/[C@@H]3CC[C@@H](OCc4nc(-c5ccccc5)c[nH]4)[C@H](OC)C3)[C@H](C)[C@@H](O)CC1=O)[C@H](C)C[C@@H]2OC
EC50 [1]: 22 nM

Compound: C=CC[C@@H]1/C=C(\C)C[C@H](C)C[C@H](OC)[C@H]2O[C@@](O)(C(=O)C(=O)N3CCCC[C@H]3C(=O)O[C@H](/C(C)=C/[C@@H]3CC[C@@H](O)[C@H](OC)C3)[C@H](C)[C@@H](O)CC1=O)[C@H](C)C[C@@H]2OC [TACROLIMUS ANHYDROUS]
ED50 (Mus musculus [2]): 0.24 mg/kg
BUN (Rattus norvegicus [3]): 20 mg/dL
selectivity ratio [4]: 15
ED50 (Mus musculus [5]): 2.6 mg/kg
BUN (Rattus norvegicus [6]): 76 mg/dL
ED50 (Mus musculus [7]): 3.5 mg/kg
BUN (Rattus norvegicus [8]): 22 mg/dL
BUN (Rattus norvegicus [9]): 43 mg/dL

Other lines, results leading:

EC50 [1]: 30 nM
Compound: CC[C@@H]1/C=C(\C)C[C@H](C)C[C@H](OC)[C@H]2O[C@@](O)(C(=O)C(=O)N3CCCC[C@H]3C(=O)O[C@H](/C(C)=C/[C@@H]3CC[C@@H](OC/C=C/c4ccccc4)[C@H](OC)C3)[C@H](C)[C@@H](O)CC1=O)[C@H](C)C[C@@H]2OC

EC50 [1]: 12 nM
Compound: CC[C@@H]1/C=C(\C)C[C@H](C)C[C@H](OC)[C@H]2O[C@@](O)(C(=O)C(=O)N3CCCC[C@H]3C(=O)O[C@H](/C(C)=C/[C@@H]3CC[C@@H](OCOCc4ccccc4)[C@H](OC)C3)[C@H](C)[C@@H](O)CC1=O)[C@H](C)C[C@@H]2OC
